Legend:
Experiment in all cases: relative viability (nuclei count vs DMSO), 5 days (fraction); higher = more cells survive
AZ3146 + Tozasertib = compound: CN1CCC(CC1)OC2=CC(=C(C=C2)NC3=NC=C4C(=N3)N(C(=O)N4C)C5CCCC5)OC [AZ3146] + Cc1cc(Nc2cc(N3CCN(C)CC3)nc(Sc3ccc(NC(=O)C4CC4)cc3)n2)n[nH]1 [Tozasertib] (partner 0.1 µM)
How it was run: (§1)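 Lung cancer cell lines, seeded in 1536-well plates, were treated the following day by pin tool with a single drug or with five library-drug doses (not always all listed) in √10 steps on top of a fixed anchor-drug dose. Cells were fixed and nuclei stained in one step after 5 days, and nuclei were counted. Relative viability is the nuclei count for treated wells divided by that for vehicle wells, reported as medians of duplicate plates.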

AZ3146 + Alpelisib = compound: CN1CCC(CC1)OC2=CC(=C(C=C2)NC3=NC=C4C(=N3)N(C(=O)N4C)C5CCCC5)OC [AZ3146] + Cc1nc(NC(=O)N2CCC[C@H]2C(N)=O)sc1-c1ccnc(C(C)(C)C(F)(F)F)c1 [Alpelisib] (partner 2 µM)
How it was run: as §1

AZ3146 + Phenformin = compound: CN1CCC(CC1)OC2=CC(=C(C=C2)NC3=NC=C4C(=N3)N(C(=O)N4C)C5CCCC5)OC [AZ3146] + N=C(N)NC(=N)NCCc1ccccc1 [Phenformin] (partner 250 µM)
How it was run: as §1

AZ3146 + Palbociclib = compound: CN1CCC(CC1)OC2=CC(=C(C=C2)NC3=NC=C4C(=N3)N(C(=O)N4C)C5CCCC5)OC [AZ3146] + CC(=O)c1c(C)c2cnc(Nc3ccc(N4CCNCC4)cn3)nc2n(C2CCCC2)c1=O [Palbociclib] (partner 0.5 µM)
How it was run: as §1

Row | Cell Line | relative viability (AZ3146 + Tozasertib; first compound 0.08 µM) | relative viability (AZ3146 + Tozasertib; first compound 0.253 µM) | relative viability (AZ3146 + Tozasertib; first compound 0.8 µM) | relative viability (AZ3146 + Tozasertib; first compound 2.53 µM) | relative viability (AZ3146 + Tozasertib; first compound 8 µM) | relative viability (AZ3146 + Alpelisib; first compound 0.08 µM) | relative viability (AZ3146 + Alpelisib; first compound 0.253 µM) | relative viability (AZ3146 + Alpelisib; first compound 0.8 µM) | relative viability (AZ3146 + Alpelisib; first compound 2.53 µM) | relative viability (AZ3146 + Alpelisib; first compound 8 µM) | relative viability (AZ3146 + Phenformin; first compound 0.08 µM) | relative viability (AZ3146 + Phenformin; first compound 0.253 µM) | relative viability (AZ3146 + Phenformin; first compound 0.8 µM) | relative viability (AZ3146 + Phenformin; first compound 2.53 µM) | relative viability (AZ3146 + Phenformin; first compound 8 µM) | relative viability (AZ3146 + Palbociclib; first compound 0.08 µM) | relative viability (AZ3146 + Palbociclib; first compound 0.253 µM) | relative viability (AZ3146 + Palbociclib; first compound 0.8 µM) | relative viability (AZ3146 + Palbociclib; first compound 2.53 µM) | relative viability (AZ3146 + Palbociclib; first compound 8 µM)
1 | NCI-H2023 | 0.331 | 0.328 | 0.171 | 0.157 | 0.147 | 0.593 | 0.499 | 0.642 | 0.608 | 0.463 | 0.403 | 0.428 | 0.349 | 0.38 | 0.217 | 0.347 | 0.343 | 0.364 | 0.311 | 0.255
2 | NCI-H2085 | 0.747 | 0.786 | 0.727 | 0.587 | 0.508 | 0.993 | 0.947 | 0.94 | 0.99 | 0.808 | 0.659 | 0.67 | 0.67 | 0.757 | 0.477 | 0.489 | 0.472 | 0.475 | 0.497 | 0.432
3 | NCI-H2087 | 0.215 | 0.31 | 0.236 | 0.17 | 0.175 | 1.03 | 1.04 | 1.19 | 1.11 | 0.953 | 0.382 | 0.54 | 0.406 | 0.46 | 0.471 | 0.181 | 0.235 | 0.244 | 0.267 | 0.206
4 | NCI-H2126 | 0.71 | 0.803 | 0.722 | 0.378 | 0.234 | 0.683 | 0.705 | 0.757 | 0.724 | 0.731 | 0.459 | 0.508 | 0.52 | 0.538 | 0.452 | 0.336 | 0.33 | 0.375 | 0.333 | 0.339
5 | NCI-H2170 | 0.593 | 0.838 | 0.644 | 0.561 | 0.266 | 0.72 | 0.767 | 0.82 | 0.794 | 0.733 | 0.352 | 0.434 | 0.338 | 0.364 | 0.357 | 0.341 | 0.361 | 0.394 | 0.398 | 0.377
6 | NCI-H2228 | 0.224 | 0.385 | 0.292 | 0.198 | 0.18 | 0.694 | 0.812 | 0.679 | 0.705 | 0.603 | 0.345 | 0.389 | 0.351 | 0.321 | 0.277 | 0.671 | 0.878 | 0.728 | 0.622 | 0.59
7 | NCI-H2347 | 0.399 | 0.529 | 0.461 | 0.744 | 0.464 | 0.944 | 1.01 | 0.708 | 1.1 | 1.04 | 0.296 | 0.357 | 0.461 | 0.598 | 0.42 | 0.441 | 0.435 | 0.457 | 0.463 | 0.415
8 | NCI-H2405 | 0.609 | 0.784 | 0.63 | 0.577 | 0.397 | 0.891 | – | 0.789 | 0.829 | 0.76 | 0.4 | 0.309 | 0.304 | 0.373 | 0.366 | 0.516 | 0.546 | 0.504 | 0.505 | 0.508
9 | NCI-H3122 | 0.397 | 0.345 | 0.307 | 0.344 | 0.228 | 0.68 | 0.683 | 0.702 | 0.872 | 0.775 | 0.367 | 0.391 | 0.327 | 0.339 | 0.305 | 0.179 | 0.19 | 0.228 | 0.23 | 0.19
10 | PC-3 [JPC-3] | 0.829 | 0.905 | 0.855 | 0.877 | 0.715 | 0.914 | 1.01 | 1.02 | 1.08 | 1.07 | 0.465 | 0.476 | 0.517 | 0.521 | 0.461 | 0.505 | – | 0.47 | 0.555 | 0.482
11 | PC-14 | 0.33 | 0.589 | 0.543 | 0.386 | 0.0776 | 0.897 | 0.976 | 0.979 | 1.07 | 0.916 | 0.563 | 0.465 | – | 0.579 | 0.314 | 0.524 | 0.606 | 0.518 | 0.571 | 0.0919
12 | RERF-LC-KJ | 0.465 | 0.497 | 0.403 | 0.294 | 0.25 | 0.805 | 0.834 | 0.685 | 0.888 | 0.747 | 0.395 | 0.44 | 0.433 | 0.432 | 0.384 | 1.05 | 1.17 | 1.01 | 1.21 | 0.833
13 | SK-LU-1 | 0.354 | 0.293 | 0.279 | 0.3 | 0.216 | 0.892 | 1.05 | 1.15 | 1.23 | 0.571 | 0.486 | 0.512 | 0.424 | 0.607 | 0.345 | 0.375 | 0.365 | 0.355 | 0.404 | 0.386
14 | SK-MES-1 | 0.891 | 0.97 | 0.77 | 0.276 | 0.211 | 0.785 | 0.93 | 0.866 | 0.836 | 0.932 | 0.661 | 0.649 | 0.61 | 0.635 | 0.518 | 0.331 | 0.344 | 0.346 | 0.291 | 0.305
15 | SW 1573 | 0.208 | 0.162 | 0.179 | 0.164 | 0.195 | 0.843 | 0.762 | 0.762 | 0.894 | 0.757 | 0.398 | 0.407 | 0.365 | 0.367 | 0.239 | 0.359 | 0.368 | 0.421 | 0.401 | 0.358
16 | UMC-11 | 0.177 | 0.199 | 0.204 | 0.177 | 0.183 | 1.08 | 0.98 | 1.11 | 0.861 | 0.296 | 0.299 | 0.311 | 0.345 | 0.317 | 0.263 | 0.267 | 0.342 | 0.335 | 0.303 | 0.306
